Results on one molecule are retold here after patent US20200009118A1, “COMPOSITIONS AND METHODS FOR THE TREATMENTOF NEURODEGENERATIVE AND OTHER DISEASES” (Glialogix, Inc., priority 2017, published 2020).

This assay deals with T1, xCT (Rattus norvegicus, UniProt A0A8I6AB70).
T1 construct: host or cells: primary rat astrocytes
Kind of assay: Extracellular glutamate from primary astrocytes (Amplex Red Glutamic Acid/Glutamate Oxidase Assay). Type of assay: cell-based. The following applies: sulfasalazine 50 μM in minimal media after TNF-alpha 100 μg/ml. The source says:
xCT is a cystine-glutamate exchange protein that imports extracellular cystine in exchange for exporting intracellular glutamate. xCT activity can be measured by measuring the level of the extracellular glutamate that is exported. For detection of extracellular glutamate, the Amplex Red Glutamic Acid/Glutamate Oxidase Assay Kit from Life Technologies (Catalog #A-1222, Grand Island, N.Y.) was used following the manufacturer's instructions. Fluorescence from the Amplex Red fluorophore is directly proportional to glutamate concentration and was detected on an Enspire plate reader (Perkin-Elmer (Model #2300, Santa Clara, Calif.) with excitation wavelength at 530 nm and detection wavelength at 590 nm according to the manufacturer's instructions.
Astrocytes were grown in 24-well microtiter plates at a density of approximately 10,000 cells/well in a total volume of 400 μl of astrocyte media. Cells were incubated 18 hours in either astrocyte media plus 100 μM cystine (Catalog #C8755; Sigma-Aldrich) or astrocyte media plus 100 μM cystine plus TNF-alpha (100 μg/ml). After 18 hours, the media was removed and the adherent astrocytes washed twice with PBS and then 400 μL of minimal media was added to the cells. The minimal media was EBSS (catalog #E3024, Sigma-Aldrich) supplemented with 100 μM cystine and 10 mM D-glucose (catalog #G8769, Sigma-Aldrich).
The top 25 μL of the supernatant was then transferred to a 0.5 ml microfuge tube and the aliquots frozen at −80.
For the glutamate assay, samples of the media were thawed, pipetted up and down to ensure mixing and 20 μl added to 80 μl of the Amplex Red assay mix in a 96-well microtiter plate (catalog #M4436, Greiner, Frickenhausen, Germany). The reactions were covered in aluminum foil and allowed to proceed for 30 minutes at 37° C. and then fluorescence measured as described above.
Concurrently with analysis of the astrocyte samples, a standard curve of the Amplex Red glutamate assay in the minimal media was prepared following the manufacturer's instructions and using known concentrations of glutamate: 0, 0.5, 1, 2 and 4 μM. Table 19 gives the numerical results of the standard curve assay and the results are depicted graphically in FIG. 17.

T1 sequence (A0A8I6AB70 1-502): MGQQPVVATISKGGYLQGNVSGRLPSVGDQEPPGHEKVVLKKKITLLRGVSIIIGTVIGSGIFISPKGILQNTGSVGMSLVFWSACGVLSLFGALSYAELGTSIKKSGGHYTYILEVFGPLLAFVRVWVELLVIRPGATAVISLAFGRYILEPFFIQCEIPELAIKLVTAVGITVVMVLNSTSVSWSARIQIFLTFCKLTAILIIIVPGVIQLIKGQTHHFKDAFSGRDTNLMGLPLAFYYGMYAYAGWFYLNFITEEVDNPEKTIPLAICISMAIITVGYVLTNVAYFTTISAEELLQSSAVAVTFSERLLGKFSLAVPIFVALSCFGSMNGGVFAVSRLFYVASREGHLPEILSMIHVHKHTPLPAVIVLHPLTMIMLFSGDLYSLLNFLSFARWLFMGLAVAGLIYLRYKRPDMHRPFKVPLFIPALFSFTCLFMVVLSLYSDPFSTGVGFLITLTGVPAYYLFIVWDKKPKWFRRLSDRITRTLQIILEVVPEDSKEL
T1 sequence (Q794F9 whole entry partner): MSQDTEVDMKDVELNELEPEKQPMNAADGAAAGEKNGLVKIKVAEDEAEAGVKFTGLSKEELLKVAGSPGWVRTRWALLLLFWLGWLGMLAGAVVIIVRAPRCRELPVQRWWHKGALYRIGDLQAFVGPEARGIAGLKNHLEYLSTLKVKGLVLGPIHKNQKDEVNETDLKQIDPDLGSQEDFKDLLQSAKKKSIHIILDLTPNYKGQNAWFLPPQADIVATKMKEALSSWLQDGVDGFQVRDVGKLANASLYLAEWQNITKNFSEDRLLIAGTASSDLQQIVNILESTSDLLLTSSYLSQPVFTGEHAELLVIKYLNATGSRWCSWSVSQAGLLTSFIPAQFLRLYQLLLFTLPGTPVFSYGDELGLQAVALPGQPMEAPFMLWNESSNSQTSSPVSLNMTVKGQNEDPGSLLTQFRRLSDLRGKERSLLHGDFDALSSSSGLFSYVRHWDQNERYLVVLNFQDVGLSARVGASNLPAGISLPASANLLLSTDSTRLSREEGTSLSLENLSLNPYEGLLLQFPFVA

As to `O=C(O)c1cc(/N=N/c2ccc(S(=O)(=O)Nc3ccccn3)cc2)ccc1O` [Sulfasalazine, 2-hydroxy-5-[(E)-2-{4-[(pyridin-2-yl)sulfamoyl]phenyl}diazen-1-yl]benzoic acid], the Calculated glutamate levels by setting is: (30 minutes) 0.25 µM; (120 minutes) 0.17 µM; (240 minutes) 0.27 µM. Moreover, the Fluorescence units stood at 4467 (30 minutes), 4199 (120 minutes) and 4525 (240 minutes).
